The values that follow come from patent US20240418735A1, “Methods and Kits for Determining Insulin Resistance Treatment” (Scimar Ltd., priority 2021, published 2024).

One assay relates to hepatalin secretion. The conditions noted are these: one dose given before a test meal; rats on sucrose supplemented diet, 9 weeks; cited from earlier work.
Another assay has as its system GSH. Description: GSH levels in sucrose-supplemented rats. Format: in vivo. The conditions noted are these: nine weeks of sucrose supplementation.
Assay [1] relates to MIS (Meal-induced Insulin Sensitization). Description: RIST index / % MIS before and 90 minutes after a mixed liquid meal in sucrose-supplemented rats. Format: in vivo. Particulars: for restoration of MIS on increasing the dose: increased doses of either NAC or BE, sucrose-supplemented rats. The source says:
While the present invention is not limited to a particular model or mechanism of action, it appears the response to feeding results in the release of acetylcholine which activates muscarinic receptors in the liver. This activation leads to increased production of nitric oxide which stimulates guanyl cyclase activity, resulting in increased levels of cyclic guanosine monophosphate which acts in stimulating the release of hepatalin from the liver. Meal-induced insulin […] (MIS) results from insulin-induced secretion of hepatalin which can only occur if the liver receives two permissive feeding signals. Absence of either signal blocks the ability of insulin to trigger hepatalin secretion. The combination of bethanechol and N-acetylcystelne (BENAC) mimics the 2 signals.
FIG. 1 is a chart showing BENAC synergistic treatment of AMIS. The % MIS (hepatalin/insulin action×100%) calculated from the RIST index in 24 hour fasted anaesthetized rats determined before and 90 minutes after intragastric injection of a mixed liquid meal in a normal control group and in four groups that had been treated with nine weeks of sucrose supplementation.

Molecules are shown by their SMILES.

As for `CC(=O)N[C@@H](CS)C(=O)O` [N-acetyl cysteine], the “ability of insulin to stimulate hepatalin secretion” value in the assay with hepatalin secretion was “ineffective”. Besides, the GSH levels entry in the assay with GSH is given as “elevated GSH levels to that seen after feeding”. Also, in assay [1] (24 hour fasted anaesthetized rats, nine weeks of sucrose supplementation), the “effect on the RIST index” value was “no effect”. For the same compound, the “restoration of MIS on increasing the dose” value in assay [1] was “restored MIS to levels seen after feeding but not above”.
With `CC(C[N+](C)(C)C)OC(N)=O` (stereo not shown) [Bethanechol], the “ability of insulin to stimulate hepatalin secretion” value in the assay on hepatalin secretion was “ineffective”. Also, the “restoration of MIS (% MIS calculated from the RIST index)” value in assay [1] (24 hour fasted anaesthetized rats, nine weeks of sucrose supplementation, before and 90 minutes after intragastric mixed liquid meal) was “modest restoration of MIS”. Also, the “restoration of MIS on increasing the dose” value in assay [1] is given as “restored MIS to levels seen after feeding but not above”.
